# Assay results taken from PubChem BioAssay AID248 (DTP/NCI, 2004).
# “And” between values parts separate entries of the source, which are not always exact repeats. Equal entries are not always repeated. Inconclusive results and toxic doses are left out.
# Tested on: L1210 leukemia ip in BDF1 mice, survival T/C
# Assay: NCI In Vivo Anticancer Drug Screen. Data for tumor model L1210 Leukemia (intraperitoneal) in B6D2F1 (BDF1) mice
# Conditions: endpoint: mean survival time, higher = longer survival
# In short: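 Transplantable tumor model; survival measured in treated vs vehicle control mice. Value = treated/control.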
# [1] = dose: 100.0 mg/kg/injection, schedule: Q04DX003 (ip), vehicle: Klucel (hydroxypropylcellulose) (HPC)
# [2] = dose: 200.0 mg/kg/injection, schedule: Q04DX003 (ip), vehicle: Klucel (hydroxypropylcellulose) (HPC)
# [3] = dose: 400.0 mg/kg/injection, schedule: Q04DX003 (ip), vehicle: Klucel (hydroxypropylcellulose) (HPC)
# [4] = dose: 100.0 mg/kg/injection, schedule: Q04DX003 (ip), vehicle: saline with Tween-80
# [5] = dose: 200.0 mg/kg/injection, schedule: Q04DX003 (ip), vehicle: saline with Tween-80
# [6] = dose: 400.0 mg/kg/injection, schedule: Q04DX003 (ip), vehicle: saline with Tween-80
# [7] = dose: 100.0 mg/kg/injection, schedule: Q01DX009 (ip), vehicle: Klucel (hydroxypropylcellulose) (HPC)
# [8] = dose: 100.0 mg/kg/injection, schedule: Q04DX002 (ip), vehicle: Klucel (hydroxypropylcellulose) (HPC)
# [9] = dose: 200.0 mg/kg/injection, schedule: Q01DX009 (ip), vehicle: Klucel (hydroxypropylcellulose) (HPC)
# [10] = dose: 200.0 mg/kg/injection, schedule: Q04DX002 (ip), vehicle: Klucel (hydroxypropylcellulose) (HPC)
# [11] = dose: 400.0 mg/kg/injection, schedule: Q01DX009 (ip), vehicle: Klucel (hydroxypropylcellulose) (HPC)
# [12] = dose: 400.0 mg/kg/injection, schedule: Q04DX002 (ip), vehicle: Klucel (hydroxypropylcellulose) (HPC)
# [13] = dose: 25.0 mg/kg/injection, schedule: Q04DX003 (ip), vehicle: Klucel (hydroxypropylcellulose) (HPC)
# [14] = dose: 50.0 mg/kg/injection, schedule: Q04DX003 (ip), vehicle: Klucel (hydroxypropylcellulose) (HPC)
# [15] = dose: 100.0 mg/kg/injection, schedule: Q01DX001 (ip), vehicle: carboxymethylcellulose (CMC)
# [16] = dose: 200.0 mg/kg/injection, schedule: Q01DX001 (ip), vehicle: carboxymethylcellulose (CMC)
# [17] = dose: 50.0 mg/kg/injection, schedule: Q01DX001 (ip), vehicle: carboxymethylcellulose (CMC)
# [18] = dose: 400.0 mg/kg/injection, schedule: Q01DX001 (ip), vehicle: carboxymethylcellulose (CMC)
# [19] = dose: 400.0 mg/kg/injection, schedule: Q01DX009 (ip), vehicle: saline with Tween-80
# [20] = dose: 100.0 mg/kg/injection, schedule: Q01DX009 (ip), vehicle: saline with Tween-80
smiles,measurement,setting,value
CC(C)OC(=O)c1cc(O)c(O)c(O)c1,T/C,"dose: 75.0 mg/kg/injection, schedule: Q01DX001 (ip), vehicle: saline",102 % of control
same,T/C,"dose: 150.0 mg/kg/injection, schedule: Q01DX001 (ip), vehicle: saline",94 % of control
same,T/C,"dose: 300.0 mg/kg/injection, schedule: Q01DX001 (ip), vehicle: saline",94 % of control
O=C(NOC(=O)c1ccco1)c1ccccc1,T/C,[1],97 % of control
same,T/C,[2],113 % of control
same,T/C,[3],104 % of control
Cc1cn(C2CC(O)C(CF)O2)c(=O)[nH]c1=O (configuration not stated),T/C,"dose: 100.0 mg/kg/injection, schedule: Q01DX005 (ip), vehicle: saline",117 % of control
same,T/C,"dose: 200.0 mg/kg/injection, schedule: Q01DX005 (ip), vehicle: saline",122 % of control
O=C(Nc1ccccc1)C1C2C=CC(CC2)C1C(=O)Nc1ccccc1 (configuration not stated),T/C,[4],98 % of control
same,T/C,[5],107 % of control
same,T/C,[6],98 % of control
O=C(Nc1cccc(C(F)(F)F)c1)Oc1ccc(F)cc1,T/C,"dose: 100.0 mg/kg/injection, schedule: Q01DX001 (ip), vehicle: Klucel (hydroxypropylcellulose) (HPC)",104 % of control
same,T/C,[7],107 % of control and 116 % of control
same,T/C,[8],92 % of control
same,T/C,[1],94 % of control
same,T/C,"dose: 200.0 mg/kg/injection, schedule: Q01DX001 (ip), vehicle: Klucel (hydroxypropylcellulose) (HPC)",109 % of control
same,T/C,[9],104 % of control and 115 % of control
same,T/C,[10],93 % of control and 92 % of control
same,T/C,[2],99 % of control
same,T/C,"dose: 400.0 mg/kg/injection, schedule: Q01DX001 (ip), vehicle: Klucel (hydroxypropylcellulose) (HPC)",98 % of control
same,T/C,[11],104 % of control and 113 % of control
same,T/C,[12],102 % of control and 108 % of control
same,T/C,[3],105 % of control
CC1(C)C2CCC(=O)OC1CC2 (configuration not stated),T/C,"dose: 5.0 mg/kg/injection, schedule: Q01DX001 (ip), vehicle: saline",116 % of control
same,T/C,"dose: 10.0 mg/kg/injection, schedule: Q01DX001 (ip), vehicle: saline",100 % of control
same,T/C,"dose: 20.0 mg/kg/injection, schedule: Q01DX001 (ip), vehicle: saline",86 % of control
same,T/C,"dose: 40.0 mg/kg/injection, schedule: Q01DX001 (ip), vehicle: saline",108 % of control
O=C(C(Sc1ccccc1)=P(c1ccccc1)(c1ccccc1)c1ccccc1)c1ccccc1,T/C,[4],90 % of control
same,T/C,[5],90 % of control
CCc1n[nH]c(=S)n1N,T/C,"dose: 12.5 mg/kg/injection, schedule: Q04DX003 (ip), vehicle: Klucel (hydroxypropylcellulose) (HPC)",94 % of control
same,T/C,[13],89 % of control
same,T/C,[14],96 % of control
O=C(NO)c1cnccn1,T/C,"dose: 296.0 mg/kg/injection, schedule: Q01DX015 (ip), vehicle: water",92 % of control
same,T/C,"dose: 666.0 mg/kg/injection, schedule: Q01DX015 (ip), vehicle: water",118 % of control
same,T/C,"dose: 1000.0 mg/kg/injection, schedule: Q01DX015 (ip), vehicle: water",120 % of control
Nc1c(Cl)ncn2[nH]c(=O)nc12,T/C,[15],96 % of control
same,T/C,[16],100 % of control
O=C(O)C(=O)Cc1ccc(O)cc1,T/C,[17],105 % of control
same,T/C,[15],96 % of control
same,T/C,[16],91 % of control
same,T/C,[18],100 % of control
CCOC(=O)c1scnc1C,T/C,[7],89 % of control
same,T/C,[1],95 % of control
same,T/C,[9],95 % of control
same,T/C,[2],95 % of control
same,T/C,[11],92 % of control
same,T/C,[3],95 % of control
CN(C)N=Nc1ccc([N+](=O)[O-])cc1C(N)=O,T/C,"dose: 100.0 mg/kg/injection, schedule: Q01DX001 (ip), vehicle: saline with Tween-80",117 % of control
same,T/C,"dose: 100.0 mg/kg/injection, schedule: Q01DX007 (ip), vehicle: saline with Tween-80",124 % of control
same,T/C,[4],108 % of control
same,T/C,"dose: 180.0 mg/kg/injection, schedule: Q01DX009 (ip), vehicle: saline with Tween-80",170 % of control
same,T/C,"dose: 200.0 mg/kg/injection, schedule: Q01DX001 (ip), vehicle: saline with Tween-80",104 % of control
same,T/C,[5],105 % of control
same,T/C,"dose: 268.0 mg/kg/injection, schedule: Q01DX009 (ip), vehicle: saline with Tween-80",167 % of control
same,T/C,"dose: 400.0 mg/kg/injection, schedule: Q01DX001 (ip), vehicle: saline with Tween-80",108 % of control
same,T/C,"dose: 400.0 mg/kg/injection, schedule: Q01DX007 (ip), vehicle: saline with Tween-80",154 % of control
same,T/C,[19],122 % of control
same,T/C,[6],117 % of control
same,T/C,"dose: 600.0 mg/kg/injection, schedule: Q01DX009 (ip), vehicle: saline with Tween-80",90 % of control
O=C(CBr)N1CCC2(CC1)SSC1(CCN(C(=O)CBr)CC1)S2,T/C,"dose: 50.0 mg/kg/injection, schedule: Q01DX009 (ip), vehicle: saline with Tween-80",96 % of control
same,T/C,[20],91 % of control
same,T/C,[4],102 % of control
same,T/C,[5],105 % of control
O=C(N/N=C/c1ccccc1)c1ccccc1,T/C,"dose: 100.0 mg/kg/injection, schedule: Q01DX009 (ip), vehicle: saline",102 % of control
same,T/C,"dose: 100.0 mg/kg/injection, schedule: Q04DX003 (ip), vehicle: alcohol",98 % of control
same,T/C,"dose: 200.0 mg/kg/injection, schedule: Q01DX009 (ip), vehicle: saline",104 % of control
same,T/C,"dose: 200.0 mg/kg/injection, schedule: Q04DX003 (ip), vehicle: alcohol",95 % of control
same,T/C,"dose: 400.0 mg/kg/injection, schedule: Q01DX009 (ip), vehicle: saline",96 % of control
same,T/C,"dose: 400.0 mg/kg/injection, schedule: Q04DX003 (ip), vehicle: alcohol",90 % of control
NN=C(c1ccccc1)c1ccccc1,T/C,"dose: 1.3 mg/kg/injection, schedule: Q01DX009 (ip), vehicle: Klucel (hydroxypropylcellulose) (HPC)",103 % of control
same,T/C,"dose: 2.61 mg/kg/injection, schedule: Q01DX009 (ip), vehicle: Klucel (hydroxypropylcellulose) (HPC)",94 % of control
same,T/C,"dose: 5.23 mg/kg/injection, schedule: Q01DX009 (ip), vehicle: Klucel (hydroxypropylcellulose) (HPC)",94 % of control
same,T/C,"dose: 10.46 mg/kg/injection, schedule: Q01DX009 (ip), vehicle: Klucel (hydroxypropylcellulose) (HPC)",86 % of control
same,T/C,[13],97 % of control
same,T/C,"dose: 41.87 mg/kg/injection, schedule: Q01DX009 (ip), vehicle: Klucel (hydroxypropylcellulose) (HPC)",91 % of control
same,T/C,"dose: 50.0 mg/kg/injection, schedule: Q01DX001 (ip), vehicle: saline",96 % of control
same,T/C,[14],92 % of control
same,T/C,"dose: 83.7 mg/kg/injection, schedule: Q01DX009 (ip), vehicle: Klucel (hydroxypropylcellulose) (HPC)",98 % of control
same,T/C,"dose: 100.0 mg/kg/injection, schedule: Q01DX001 (ip), vehicle: saline",96 % of control
same,T/C,[1],111 % of control
same,T/C,"dose: 200.0 mg/kg/injection, schedule: Q01DX001 (ip), vehicle: saline",100 % of control
same,T/C,"dose: 400.0 mg/kg/injection, schedule: Q01DX001 (ip), vehicle: saline",96 % of control
CC1CC(C(=O)O)C(Cc2ccc([N+](=O)[O-])cc2)C1=O (configuration not stated),T/C,[8],93 % of control
same,T/C,[10],93 % of control
same,T/C,[12],89 % of control
O=C(O)C1CCC(C(=O)O)NC1 (configuration not stated),T/C,"dose: 100.0 mg/kg/injection, schedule: Q04DX003 (ip), vehicle: saline",106 % of control
same,T/C,"dose: 200.0 mg/kg/injection, schedule: Q04DX003 (ip), vehicle: saline",102 % of control
same,T/C,"dose: 400.0 mg/kg/injection, schedule: Q04DX003 (ip), vehicle: saline",101 % of control
S=c1nc2[nH]c3ccccc3c2n[nH]1,T/C,[4],94 % of control
same,T/C,[5],89 % of control
O=S(=O)(Cc1nc2ccccc2[nH]1)Cc1nc2ccccc2[nH]1,T/C,[17],97 % of control
same,T/C,[15],92 % of control
same,T/C,[16],100 % of control
same,T/C,[18],92 % of control
Oc1cc(O)c2c(c1)OC(c1ccc(O)c(O)c1)C(O)C2c1c(O)cc(O)c2c1OC(c1ccc(O)c(O)c1)C(O)C2 (configuration not stated),T/C,[20],101 % of control
same,T/C,"dose: 200.0 mg/kg/injection, schedule: Q01DX009 (ip), vehicle: saline with Tween-80",97 % of control
same,T/C,[19],93 % of control
